# Patent US20200129630A1, “METHODS FOR TREATING CANCER” (BicycleRD Limited, priority 2018, published 2020)
# Like-named read-outs stand apart in the source and are kept apart here. Numbered stars: 1 amine (or outer) side, 2 acyl side, 3 side chain; on linkers, the order of the positions; unused ones are H or OH. Bridge positions count the residues as written; N and C are the ends. Square brackets hold non-standard residues; d marks the D form. Peptide text beside a SMILES is read from it. 1Nal = N[C@@H](Cc1cccc2ccccc12)C(=O)O; TBMB = c1c(C[*:1])cc(C[*:3])cc1C[*:2]; Tle = CC(C)(C)[C@H](N)C(=O)O; βAla = NCCC(=O)O; Sar = CNCC(=O)O
# Experiments:
# [1] = test system: NSCLC; details: second-line treatment, PD-1 checkpoint blockade; cited from earlier work
# [2] = in vitro immunogenicity tests, n=50
# Description: These include in vitro tissue microarray in human, rat and monkey tissues and in vitro and in vivo assessment of immunogenicity. In vivo assessments include single dose toxicity in mice and rats, multiple dose range finding studies in mice, rats, dogs and monkeys (non-GLP) and GLP-compliant multiple dose studies in rats and monkeys consisting of 28-day on study phase with a 28-day recovery period.
# [3] = target: MT1-MMP (Homo sapiens, UniProt P50281); assay: Effect on catalytic (proteolytic) activity of MT1-MMP; assay type: biochemical; details: in vitro
# Protocol: (§1) Bicycle drug conjugates (BDCs) with a variety of linkers and cytotoxic payloads were prepared which retained binding to MT1.
# (§2) BT1718 is a BDC that binds to MT1-MMP and upon cleavage of its disulphide linker, releases the cytotoxic tubulin inhibitor, DM1 (also referred to as DM1-SH).
# [4] = test system: cell migration or invasion; assay: Cell migration or invasion; assay type: cell-based
# Protocol: as §1
# [5] = test system: MMP15, MMP16, MMP24, MMP1, Pro-MMP1, MMP2; assay: Binding to related MMP family members
# Protocol: as §1, §2
# [6] = test system: MMP1, MMP2 and MMP9; assay: Effect on related MMP catalytic activity; assay type: biochemical
# Protocol: as §1
# [7] = Intrinsic clearance in cryopreserved hepatocytes; assay type: in vitro ADME
# Protocol: Accumulation of the majority of the radioactivity was found in the kidney and bladder irrespective of the labelled peptide dose; this is indicative of either non-saturable excretion or proteolysis followed by excretion through the kidneys. Furthermore, the intrinsic clearance of BT1718 and its Bicycle component, N241 was low when measured in cryopreserved hepatocytes. […] Unconjugated DM1, when radiolabelled, (as [[^3H]-DM1 (91 μCi/kg, 200 μg/kg, IV), was reported to distribute rapidly and extensively to the lungs, liver, kidney, spleen, heart, gastrointestinal tract, and adrenal glands in the rat. The major route of excretion of DM1 was through the bile/faeces, with a minimal amount excreted in the urine, a completely different distribution to BT1718 and its metabolites with little and short lived accumulation seen in other organs such as heart, liver, GI and lungs which would imply that these organs maybe spared systemic toxicity.
# [8] = test system: catalytic domain of MT1-MMP; assay: Binding to catalytic domain of MT1-MMP
# Protocol: as §1, §2
# [9] = test system: NMB selected tumors; details: cited from earlier work
# [10] = test system: HER2 positive breast cancer; details: third-line, HER2 positive population; cited from earlier work
# [11] = test system: MT1 MMP-expressing NSCLC PDX models; assay: MT1-MMP-expressing NSCLC PDX models, docetaxel-sensitive and -resistant; assay type: in vivo; details: 60 mg/m^2 once weekly
# Description: Furthermore, BT1718 produced an anti-tumor effect against MT1 MMP-expressing NSCLC PDX models irrespective of their sensitivity to the SOC chemotherapeutic docetaxel. […] The PDX models confirm that MT1-MMP expression is necessary for BT1718 anti-tumor activity.
# [12] = [^3H]-DM1 200 μg/kg IV, rat; cited from earlier work
# [13] = monkey; previously reported; cited from earlier work
# [14] = rat; previously reported; cited from earlier work
# [15] = human; previously reported; cited from earlier work
compound,measurement,setting,value
pembrolizumab: PD-1 checkpoint blockade agent,ORR,[1],around 20%
atezolizumab: PD-1 checkpoint blockade agent,ORR,[1],around 20%
C[C@H](NC(=O)CN(C)C(=O)CN(C)C(=O)CN(C)C(=O)CN(C)C(=O)CN(C)C(=O)CN(C)C(=O)CN(C)C(=O)CN(C)C(=O)CN(C)C(=O)CN(C)C(=O)CCN)C(=O)N[C@H]1CSCc2cc3cc(c2)CSC[C@H](NC(=O)[C@@H](C)NC(=O)[C@H](Cc2cccc4ccccc24)NC(=O)[C@H](CCC(=O)O)NC(=O)[C@H](CC(N)=O)NC(=O)[C@@H](C)NC1=O)C(=O)N[C@@H](CCC(=O)O)C(=O)N[C@@H](CC(=O)O)C(=O)N[C@@H](Cc1ccccc1)C(=O)N[C@@H](Cc1ccc(O)cc1)C(=O)N[C@@H](CC(=O)O)C(=O)N[C@@H](C(C)(C)C)C(=O)N[C@H](C(N)=O)CSC3 [N241] (H-[βAla][Sar][Sar][Sar][Sar][Sar][Sar][Sar][Sar][Sar][Sar]AC[dA]NE[1Nal][dA]CEDFYD[Tle]C-NH2; linker 13-19-26 via TBMB; N-terminus and C-terminus assumed),positive responses in donor cohort,[2],2%
same,impact on the catalytic activity of the protease,[3],no direct impact
same,impact on cell migration or invasion,[4],no direct impact
same,selectivity over other related-MMP hemopexin domains,[5],over 200 fold
same,binding toward closely related MMP family members,"[5]; MMP15, MMP16, MMP24, MMP1, Pro-MMP1, MMP2",no binding
same,impact on related MMP catalytic activity,[6],no direct impact
same,intrinsic clearance,[7],low
same,binding to the catalytic domain,[8],no binding
same,selectivity over catalytic domain of MT1-MMP,[8],at least 50 fold
nivolumab: PD-1 checkpoint blockade agent,ORR,[1],around 20%
CDX-011: Antibody-Drug Conjugate (ADC) against glycoprotein NMB,ORR,[9],30%
T-DM1,ORR,[10],31%
CC(=O)O[C@@]12CO[C@@H]1C[C@H](O)[C@@]1(C)C(=O)[C@H](O)C3=C(C)[C@@H](OC(=O)[C@H](O)[C@@H](NC(=O)OC(C)(C)C)c4ccccc4)C[C@@](O)([C@@H](OC(=O)c4ccccc4)[C@H]21)C3(C)C [docetaxel],anti-tumor effect,[11],regression only in the docetaxel-sensitive model
COc1cc2cc(c1Cl)N(C)C(=O)C[C@H](OC(=O)[C@H](C)N(C)C(=O)CCS)[C@]1(C)O[C@H]1[C@H](C)[C@@H]1C[C@@](O)(NC(=O)O1)[C@H](OC)/C=C/C=C(\C)C2 [DM1],major route of excretion,[12],bile/faeces
same,unbound fraction,[13],7%
same,unbound fraction,[14],3%
same,unbound fraction,[15],7%
